Reference: patent US20260355184A1, “SMALL MOLECULE DEGRADERS OF HIV-1 TAT PROTEIN” (priority 2022, published 2026)
Like-named read-outs stand apart in the source and are kept apart here.

Legend:
HIV NL4.3 strain = assay: HIV infectivity assay, reporter cell line HeLa-CD4-LTR-LacZ, β-Gal activity (Tat protein inhibition); type: cell-based, HIV-1 (NL4.3)
Procedure: (§1) Next, the activity of these leads against HIV infection was evaluated using the reporter cell line HeLa-CD4-LTR-LacZ, which stably expresses the β-galactosidase (β-Gal) gene under the control of the HIV 5′ LTR. The HIV NL4.3 strain was used for these studies and β-Gal activity was measured 72 hrs post infection (FIG. 3A). Cytotoxicity assays using Cell-Titer-Glo were performed in parallel to assess cell viability (FIG. 3A). […] Their anti-HIV activity was further assessed in acute replication of Jurkat T cells with the NL4.3 strain (FIG. 3A). […] These OM10.1 cells contain a single integrated wild-type provirus, while ACH-2 cells contain a single integrated provirus with a TAR mutation C37T, defective Tat-TAR feedback loop (FIG. 3B).

[1] = Cytotoxicity assay, Cell-Titer-Glo, HeLa-CD4-LTR-LacZ; conditions: human, hela-cd4-ltr-lacz cells, Infectivity CC50, HeLa-CD4-LTR-LacZ
Procedure: as §1

Flag-Tat = molecular target: T1, Flag-Tat (Human immunodeficiency virus type 1 (HXB3 ISOLATE), UniProt P69698); assay: Degradation assay: Flag-Tat in HEK293T cells, western blot; type: cell-based, HIV; conditions: HEK293T; western blot
T1 construct: Tat 86 aa likely (9 lysines)
T1 sequence (P69698 whole entry): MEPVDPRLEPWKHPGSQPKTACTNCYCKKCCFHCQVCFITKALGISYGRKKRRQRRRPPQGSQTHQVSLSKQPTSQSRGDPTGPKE
Procedure: Next, the effect of the three leads on the alteration of Tat steady state levels was assessed. Tat expression from an integrated provirus, or from HIV acute infection is generally too low to be detected by western blot. Furthermore, antibodies against Tat are known for their lack of avidity. Tat degradation was thus assessed upon transfection. Flag-Tat or Flag-GFP were individually transfected into HEK293T and 24 hrs later, TT-44856, TT-44863 or TT-44881 were added to the culture, followed by Western blot 24 hrs later (dubbed “degradation assay”) (FIG. 5A). […] These cells were treated with TNFα (previously determined not be degraded by the three leads in FIG. 2D) in the presence of TT-44856, TT-44863 or TT-44881, followed by western blot with an anti-Flag antibody 17 hrs later. […] Finally, the leads' impact on recombinant Tat protein in HEK293T cells was assessed (FIG. 5D). HEK293T cells were incubated with recombinant Tat for 4 hrs to allow Tat internalization, followed by several thorough washes to remove unincorporated Tat. Cells were then incubated with all three leads (or Triptolide) for an additional 2 hrs. Cells were lysed and analyzed by western blot with an anti-Tat serum.
Degradation of Tat has been reported in the literature in multiple ways, including the lysosomal pathway^23, the ubiquitin-independent 20S proteasomal pathway (due to its unfolded structure)^24,25, and the ubiquitin-dependent 26S proteasomal pathway^26. It was first assessed whether Tat was targeted to the lysosomal pathway by the lead compounds. HEK293T cells were transfected with Flag-Tat for 24 hrs, incubated with the compounds for an additional 24 hrs, then treated for 8 hrs with either 100 μM chloroquine or 50 mM NH4Cl, both known to inhibit lysosomal hydrolases by reducing acidification. […] Both the 20S and the 26S proteasomal pathways were next investigated using MG132, an inhibitor of the catalytic […] of 20S present in both pathways^27. The degradation assay was carried out as above, but compounds were simultaneously incubated with MG132 20 μM or DMSO for 17 hrs followed by western blot. In the presence of MG132, Tat degradation was rescued, but the rescue was higher in the presence of the lead compounds (FIG. 6B).
Protein ubiquitination occurs by sequential recruitment of ubiquitin-activating enzyme E1, ubiquitin-conjugating enzyme E2, and ubiquitin ligase E3 (using ubiquitin, substrate protein, and ATP). The selectivity in protein ubiquitination is conferred by E3 ubiquitin ligases that recognize the substrate proteins^29 and the human genome contains more than 600 E3 ubiquitin ligases^29. To determine whether the small molecule leads trigger the 20S or the 26S proteasomal pathways, the Tat degradation assay was performed in the presence of commercially available E3 ligase inhibitors, including Lenalidomide a E3 ubiquitin ligase Cereblon inhibitor. Cereblon has not been previously reported to ubiquitinate Tat. The degradation assays were performed as above with Lenalidomide (40 μM) or DMSO incubation for 4 hrs in the presence of the lead molecules (FIG. 7A). […] To confirm the engagement of Cereblon in the mechanism of action of the lead compounds, shRNAs were used to stably knock down Cerebelon, or CD8 control, in HEK293T cells, and the degradation assay for TT-44856 was performed.
The involvement of the ubiquitous VHL E3 ligase in the activity of TT-44881 inducing Tat degradation was also investigated. HEK293T cells overexpressing Tat protein and VHL siRNAs (or si control) were treated with either TT-44881 (60 μM) and DMSO or TT-44881 with a VHL PROTAC (CM11, 500 nM) for 24 hours. siRNAs and PROTACs were used together to maximize the depletion of both VHL isoforms (30 and 19 kDa).

HeLa-CD4-LTR-LacZ cells = assay: Cytotoxicity assay, Cell-Titer-Glo, HeLa-CD4-LTR-LacZ; conditions: read-out: Infectivity CC50, HeLa-CD4-LTR-LacZ
Procedure: as §1

[2] = Human immunodeficiency virus 1, read-out: Infectivity IC50, HeLa-CD4-LTR-LacZ, analogs of TT-44881 (Table 1)
[3] = Human immunodeficiency virus 1, read-out: Infectivity IC50, HeLa-CD4-LTR-LacZ, analogs of TT-44863 (Table 2)
[4] = read-out: Infectivity IC50, HeLa-CD4-LTR-LacZ, analogs of TT-44856 (Table 3)
[5] = Human immunodeficiency virus 1, read-out: Infectivity IC50, HeLa-CD4-LTR-LacZ, analogs of TT-44856 (Table 3)

SMILES | IC50 (HIV NL4.3 strain; [2]) | CC50 ([1]; analogs of TT-44881 (Table 1)) | IC50 (HIV NL4.3 strain; [3]) | CC50 ([1]; analogs of TT-44863 (Table 2)) | further results
CN(CCCN1CCCC1=O)C(=O)c1nn(-c2ccccc2)c2c1CCC2 [GB-04] | > 100 µM | > 100 µM |  |  | Flag-Tat degradation / steady state (Flag-Tat): did not affect Flag-Tat steady state
COc1ccc(C#N)cc1NC(=O)Cn1cccc(Cl)c1=O [TT-46766] |  |  | > 100 µM | > 100 µM | Flag-Tat degradation / steady state (Flag-Tat): did not affect Flag-Tat steady state
Cc1nccn1CCCNC(=O)C(C)(c1ccccc1)c1ccccc1 [3-53] |  |  |  |  | IC50 (HIV NL4.3 strain; [4]): 1 to 10 µM; CC50 (HeLa-CD4-LTR-LacZ cells; analogs of TT-44856 (Table 3)): 50 to 100 µM
O=C(NCCCn1ccnc1)C(c1ccccc1)c1ccccc1 [3-71] |  |  |  |  | IC50 (HIV NL4.3 strain; [4]): 1 to 30 µM; CC50 (HeLa-CD4-LTR-LacZ cells; analogs of TT-44856 (Table 3)): > 100 µM
CC(C)(C)OC(=O)COCCOCCOc1ccc(C(F)(F)F)cc1NC(=O)Cn1cc(C(F)(F)F)cc(Cl)c1=O [compound 56] |  |  |  |  | IC50 (HIV NL4.3 strain; read-out: Infectivity IC50, HeLa-CD4-LTR-LacZ, analogs of TT-44863 (Table 2)): > 100 µM; CC50 (HeLa-CD4-LTR-LacZ cells; analogs of TT-44863 (Table 2)): > 100 µM
CC(C)(C)c1cn(-c2ccccc2)nc1C(=O)NCCCN1CCCC1=O [compound 47091] | > 100 µM | 50 to 100 µM |  |  | 
CC(C(=O)NCCCN1CCNCC1)(c1ccccc1)c1ccccc1 [3-55] |  |  |  |  | IC50 (HIV NL4.3 strain; [5]): > 100 µM; CC50 ([1]; analogs of TT-44856 (Table 3)): > 100 µM
CC1(C(=O)NCCCn2ccnc2)c2ccccc2-c2ccccc21 [3-50] |  |  |  |  | IC50 (HIV NL4.3 strain; [5]): 1 to 20 µM; CC50 ([1]; analogs of TT-44856 (Table 3)): > 100 µM
CCOc1ccccc1NC(=O)Cn1cc(C(F)(F)F)cc(Cl)c1=O [compound 46604] |  |  | > 100 µM | > 100 µM | 
O=C(NCCCN1CCCC1=O)c1nn(-c2ccccc2)c2c1CCCC2 [GB-02] |  |  |  |  | IC50 (HIV NL4.3 strain; read-out: Infectivity IC50, HeLa-CD4-LTR-LacZ, analogs of TT-44881 (Table 1)): 50 to 100 µM; CC50 (HeLa-CD4-LTR-LacZ cells; analogs of TT-44881 (Table 1)): > 100 µM
O=C(NCCCn1ccnc1)C1c2ccccc2Oc2ccccc21 [3-61] |  |  |  |  | IC50 (HIV NL4.3 strain; [5]): > 100 µM; CC50 ([1]; analogs of TT-44856 (Table 3)): > 100 µM
O=C(NCCCN1CCCC1=O)c1nn(-c2ccccc2)c2c1CCC(O)C2 (stereo not drawn) [GB-12] | 1 to 10 µM | > 100 µM |  |  | 
O=C(NCCCN1CCCC1=O)c1nn(CC2CCC2)c2c1CCC2 [compound 46933] | > 100 µM | > 100 µM |  |  | 
COc1ccc(F)cc1NC(=O)Cn1cc(C(F)(F)F)cc(Cl)c1=O [compound 46867] |  |  | 10 to 30 µM | 50 to 100 µM | 
CCOCCOCCOc1ccc(C(F)(F)F)cc1NC(=O)Cn1cc(C(F)(F)F)cc(Cl)c1=O [compound 55] |  |  | 1 to 20 µM | > 100 µM | 
CCn1nc(C(=O)NCCCN2CCCC2=O)c2c1CCC2 [compound 46932] | > 100 µM | > 100 µM |  |  | 
COc1ccc(C(F)(F)F)cc1NC(=O)C(C)n1cc(C(F)(F)F)cc(-c2ccccc2)c1=O (stereo not drawn) |  |  | > 100 µM | > 100 µM | 
COc1ccc(C(F)(F)F)cc1NC(=O)Cn1cc(C)cc(Cl)c1=O [compound 46809] |  |  | 1 to 10 µM | > 100 µM | 
O=C(NCCCN1CCCC1=O)c1nn(-c2ccccc2)c2c1CCC1(C2)OCCO1 [GB-10] | > 100 µM | > 100 µM |  |  | 
CC(NC(=O)C(c1ccccc1)c1ccccc1)c1ccc(-n2ccnc2)cc1 (stereo not drawn) [Z27307031] |  |  |  |  | IC50 (HIV NL4.3 strain; [5]): 1 to 20 µM; CC50 ([1]; analogs of TT-44856 (Table 3)): > 100 µM
